Test results from ChEMBL document CHEMBL4354856, “Discovery of 4,6-O-Thenylidene-β-d-glucopyranoside-(2″-acetamido, 3″-acetyl-di-S-5-fluorobenzothizole/5-fluorobenzoxazole)-4'-demethylepipodophyllotoxin as Potential Less Toxic Antitumor Candidate Drugs by Reducing DNA Damage and Less Inhibition of PI3K” (J Med Chem, 2020).
Activity calls are given as the source filed them. No cut-off for these calls is given here.

Legend:
HepG2 [1] = test: Antitumor activity against human HepG2 xenografted in BALB/c nude mouse assessed as tumor volume at 30 mg/kg, ip administered for 20 days and measured after 20 days by electronic caliper method (reference value: 960.20 +/- 32.10 mm3); assay type: functional
HepG2 [2] = test: Cell cycle arrest in human HepG2 cells assessed as accumulation at G2/M phase at 20 uM after 36 hrs by propidium staining based flow cytometry analysis relative to control; assay type: functional
L02 [3] = test: Cell cycle arrest in human HL7702 cells assessed as accumulation at G2/M phase at 50 uM after 42 hrs by propidium staining based flow cytometry analysis relative to control; conditions: l02, 42 h
[4] = Cytotoxicity against human H8 cells assessed as inhibition of cell proliferation measured after 48 hrs by MTT assay; assay type: cell-based
HepG2 [5] = test: Induction of apoptosis in human HepG2 cells assessed as apoptotic cells at 20 uM measured after 42 hrs by Annexin-V/propidium iodide staining based flow cytometry analysis relative to control; assay type: functional
DNA topoisomerase II [6] = target: T1, DNA topoisomerase II (Homo sapiens, UniProt P11388+Q02880); test: Poison activity at topoisomerase-2 in human HepG2 cell lysate assessed as topoisomerase-2 band depletion after 3 hrs by Western blot analysis; assay type: subcellular
HMEC [7] = test: Cytotoxicity against human HMEC cells assessed as inhibition of cell proliferation measured after 48 hrs by MTT assay; assay type: cell-based
L02 [8] = test: Genotoxicity in human HL7702 cells assessed as induction of DNA damage by measuring tail DNA at 50 uM after 24 hrs by alkaline comet assay (reference value: 3 +/- 1.1 %); assay type: toxicity, cell-based; conditions: l02, 24 h
MRC5 [9] = test: Cytotoxicity against human MRC5 cells assessed as inhibition of cell proliferation measured after 48 hrs by MTT assay; assay type: cell-based; conditions: MRC5, 48 h
HepG2 [10] = test: Anticancer activity against human HepG2 cells assessed as inhibition of cell proliferation measured after 48 hrs by MTT assay; assay type: functional, cell-based; conditions: HepG2, 48 h
L02 [11] = test: Induction of apoptosis in human HL7702 cells assessed as apoptotic cells at 50 uM measured after 42 hrs by Annexin-V/propidium iodide staining based flow cytometry analysis relative to control; assay type: cell-based; conditions: l02, 42 h
[12] = Acute toxicity in ip dosed C57BL6 mouse assessed as mouse survival administered as single dose for 3 days and monitored for 20 days by Bliss method; assay type: organism-based; conditions: in vivo
Homo sapiens = organism: Homo sapiens; test: Induction of PI3K/AKT phosphorylation in human HL7702 cells at 25 uM after 30 hrs by Western blot analysis; assay type: cell-based
[13] = Acute toxicity in C57BL6 mouse assessed as lethality at 100 mg/kg, ip administered for 4 days; assay type: organism-based; conditions: in vivo, 96 h
L02 [14] = test: Induction of apoptosis in human HL7702 cells assessed as increase in PARP cleavage at 25 uM after 30 hrs by Western blot analysis; assay type: cell-based; conditions: l02, 30 h
L02 [15] = test: Induction of apoptosis in human HL7702 cells assessed as increase in BAX level at 25 uM after 30 hrs by Western blot analysis; assay type: cell-based; conditions: l02, 30 h
HepG2 [16] = test: Antitumor activity against human HepG2 xenografted in BALB/c nude mouse assessed as tumor growth inhibition at 30 mg/kg, ip administered for 20 days and measured after 20 days by electronic caliper method relative to control; assay type: functional; conditions: 480 h, read-out: TGI
L02 [17] = test: Cell cycle arrest in human HL7702 cells assessed as accumulation at G2/M phase at 5 uM after 30 hrs by propidium staining based flow cytometry analysis; conditions: l02, 30 h
[18] = target: DNA topoisomerase 2-alpha (Homo sapiens) (UniProt P11388); test: Inhibition of human topoisomerase-2alpha mediated decatenation at 25 uM using kinetoplast DNA as substrate after 30 mins in presence of ATP by ethidium bromide staining-based UV imaging analysis
L02 [19] = test: Genotoxicity in human HL7702 cells assessed as induction of DNA damage at 50 uM after 24 hrs by alkaline comet assay; assay type: toxicity, cell-based; conditions: l02, 24 h
HeLa = test: Anticancer activity against human HeLa cells assessed as inhibition of cell proliferation measured after 48 hrs by MTT assay; assay type: functional, cell-based
L02 [20] = test: Cytotoxicity against human HL7702 cells assessed as inhibition of cell proliferation measured after 48 hrs by MTT assay; assay type: cell-based; conditions: L02, 48 h
MCF7 = test: Anticancer activity against human MCF7 cells assessed as inhibition of cell proliferation measured after 48 hrs by MTT assay; assay type: functional, cell-based; conditions: MCF7, 48 h
L02 [21] = test: Induction of DNA damage in human HL7702 cells assessed as effect on gamma-H2AX phosphorylation at 20 uM after 24 hrs by Alexa Fluor 488 staining based fluorescence assay; assay type: cell-based; conditions: l02, 24 h
HepG2 [22] = test: Cell cycle arrest in human HepG2 cells assessed as accumulation at G2/M phase at 5 uM after 24 hrs by propidium staining based flow cytometry analysis relative to control; assay type: functional
A549 = test: Anticancer activity against human A549 cells assessed as inhibition of cell proliferation measured after 48 hrs by MTT assay; assay type: functional, cell-based; conditions: A549, 48 h
HepG2 [23] = test: Antitumor activity against human HepG2 xenografted in ip dosed BALB/c nude mouse administered for 20 days and measured after 20 days by electronic caliper method; assay type: functional; conditions: 480 h
HepG2 [24] = test: Cell cycle arrest in human HepG2 cells assessed as accumulation at G2/M phase at 5 uM after 24 hrs by propidium staining based flow cytometry analysis; assay type: functional
DNA topoisomerase II [25] = target: T1, DNA topoisomerase II; test: Poison activity at topoisomerase-2 in human HL7702 cell lysate assessed as reduction in topoisomerase-2 band depletion at 50 uM after 3 hrs by Western blot analysis; assay type: ADME, subcellular
HepG2 [26] = test: Induction of apoptosis in human HepG2 cells assessed as apoptotic cells at 10 uM measured after 42 hrs by Annexin-V/propidium iodide staining based flow cytometry analysis relative to control; assay type: functional
[27] = target: DNA topoisomerase 2-alpha (Homo sapiens) (UniProt P11388); test: Inhibition of human topoisomerase-2alpha mediated decatenation at 50 uM using kinetoplast DNA as substrate after 30 mins in presence of ATP by ethidium bromide staining-based UV imaging analysis relative to control
L02 [28] = test: Cell cycle arrest in human HL7702 cells assessed as accumulation at G2/M phase at 5 uM after 30 hrs by propidium staining based flow cytometry analysis relative to control; conditions: l02, 30 h
L02 [29] = test: Cytotoxicity against human HL7702 cells assessed as inhibition of cell proliferation measured after 48 hrs by MTT assay relative to teniposide; assay type: cell-based; conditions: l02, 48 h
L02 [30] = test: Genotoxicity in human HL7702 cells assessed as induction of DNA damage at 50 uM after 24 hrs in combination of teniposide by alkaline comet assay; assay type: toxicity, cell-based; conditions: l02, 24 h
[31] = Acute toxicity in C57BL6 mouse assessed as effect on heart at 30 mg/kg, ip administered for 20 days and measured after 20 days by hematoxylin and eosin staining based assay; assay type: organism-based; conditions: in vivo, 480 h
[32] = Acute toxicity in C57BL6 mouse assessed as effect on lung at 30 mg/kg, ip administered for 20 days and measured after 20 days by hematoxylin and eosin staining based assay; assay type: organism-based; conditions: in vivo, 480 h
[33] = Acute toxicity in C57BL6 mouse assessed as effect on liver at 30 mg/kg, ip administered for 20 days and measured after 20 days by hematoxylin and eosin staining based assay; assay type: organism-based; conditions: in vivo, 480 h
[34] = Acute toxicity in C57BL6 mouse assessed as effect on body weight at 100 mg/kg, ip administered for 20 days; assay type: organism-based; conditions: in vivo, 480 h
[35] = Therapeutic index, ratio of LD50 for acute toxicity in ip dosed C57BL6 mouse assessed as mouse survival administered as single dose for 3 days and monitored for 20 days by Bliss method to ED50 for antitumor activity against human HepG2 xenografted in ip dosed BALB/c nude mouse administered for 20 days and measured after 20 days by electronic caliper method; assay type: organism-based; conditions: in vivo, read-out: TI
HepG2 [36] = test: Cell cycle arrest in human HepG2 cells assessed as accumulation at G2/M phase at 15 uM after 36 hrs by propidium staining based flow cytometry analysis relative to control; assay type: functional
HepG2 [37] = test: Induction of DNA damage in human HepG2 cells assessed as increase in H2AX phosphorylation at 20 uM after 24 hrs by Alexa Fluor 488 staining based fluorescence assay; assay type: functional, cell-based
MRC5 [38] = test: Cytotoxicity against human MRC5 cells assessed as inhibition of cell proliferation measured after 48 hrs by MTT assay relative to teniposide; assay type: cell-based; conditions: mrc5, 48 h
[39] = target: DNA topoisomerase 2-alpha (Homo sapiens) (UniProt P11388); test: Inhibition of human topoisomerase-2alpha mediated decatenation using kinetoplast DNA as substrate after 30 mins in presence of ATP by ethidium bromide staining-based UV imaging analysis
HepG2 [40] = test: Induction of apoptosis in human HepG2 cells assessed as apoptotic cells at 5 to 15 uM measured after 36 hrs by Annexin-V/propidium iodide staining based flow cytometry analysis relative to control; assay type: functional
[41] = Acute toxicity in C57BL6 mouse assessed as effect on kidney at 30 mg/kg, ip administered for 20 days and measured after 20 days by hematoxylin and eosin staining based assay; assay type: organism-based; conditions: in vivo, 480 h
HMEC [42] = test: Cytotoxicity against human HMEC cells assessed as inhibition of cell proliferation measured after 48 hrs by MTT assay relative to teniposide; assay type: cell-based

Chain of DNA topoisomerase 2-alpha (Homo sapiens) (P11388 whole entry): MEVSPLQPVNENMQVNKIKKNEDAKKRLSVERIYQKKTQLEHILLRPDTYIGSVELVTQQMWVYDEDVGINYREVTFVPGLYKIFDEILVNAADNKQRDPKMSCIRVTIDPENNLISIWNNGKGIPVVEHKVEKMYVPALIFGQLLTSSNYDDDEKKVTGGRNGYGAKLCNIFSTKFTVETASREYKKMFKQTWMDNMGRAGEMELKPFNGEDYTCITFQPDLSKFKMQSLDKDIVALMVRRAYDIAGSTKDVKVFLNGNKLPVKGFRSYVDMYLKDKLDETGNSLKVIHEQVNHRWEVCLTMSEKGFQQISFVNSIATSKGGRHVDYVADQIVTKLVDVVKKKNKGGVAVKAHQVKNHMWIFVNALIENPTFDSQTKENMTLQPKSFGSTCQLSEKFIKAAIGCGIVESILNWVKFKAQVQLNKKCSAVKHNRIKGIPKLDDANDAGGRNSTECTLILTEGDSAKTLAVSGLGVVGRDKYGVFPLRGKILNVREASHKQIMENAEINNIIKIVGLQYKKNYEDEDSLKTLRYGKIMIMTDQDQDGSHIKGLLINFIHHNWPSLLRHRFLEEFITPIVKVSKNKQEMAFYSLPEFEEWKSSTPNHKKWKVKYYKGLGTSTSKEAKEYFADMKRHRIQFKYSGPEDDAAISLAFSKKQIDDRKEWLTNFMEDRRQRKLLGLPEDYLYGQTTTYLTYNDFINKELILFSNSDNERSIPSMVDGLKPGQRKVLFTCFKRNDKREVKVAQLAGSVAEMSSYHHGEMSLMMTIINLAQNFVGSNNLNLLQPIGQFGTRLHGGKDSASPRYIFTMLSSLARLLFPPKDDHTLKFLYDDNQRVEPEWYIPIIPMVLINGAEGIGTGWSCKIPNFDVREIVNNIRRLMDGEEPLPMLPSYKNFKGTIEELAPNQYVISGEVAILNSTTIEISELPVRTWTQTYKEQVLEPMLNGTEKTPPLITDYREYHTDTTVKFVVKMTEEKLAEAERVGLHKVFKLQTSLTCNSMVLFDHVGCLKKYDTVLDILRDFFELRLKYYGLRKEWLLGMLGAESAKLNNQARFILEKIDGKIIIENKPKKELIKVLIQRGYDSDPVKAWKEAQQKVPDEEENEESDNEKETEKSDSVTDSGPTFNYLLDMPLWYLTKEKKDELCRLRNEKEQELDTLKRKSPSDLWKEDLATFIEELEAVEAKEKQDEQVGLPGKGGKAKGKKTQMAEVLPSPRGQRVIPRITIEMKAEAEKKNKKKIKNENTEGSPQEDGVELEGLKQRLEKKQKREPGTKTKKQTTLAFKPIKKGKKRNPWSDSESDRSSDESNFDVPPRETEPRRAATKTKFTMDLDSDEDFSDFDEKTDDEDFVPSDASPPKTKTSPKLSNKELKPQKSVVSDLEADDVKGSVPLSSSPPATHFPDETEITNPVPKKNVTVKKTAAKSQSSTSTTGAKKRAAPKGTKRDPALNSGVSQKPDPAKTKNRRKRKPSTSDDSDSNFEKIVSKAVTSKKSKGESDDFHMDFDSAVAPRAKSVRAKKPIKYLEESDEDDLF

COc1cc([C@@H]2c3cc4c(cc3[C@@H](O[C@@H]3O[C@@H]5CO[C@@H](c6cccs6)O[C@H]5[C@H](O)[C@H]3O)[C@H]3COC(=O)[C@H]23)OCO4)cc(OC)c1O [TENIPOSIDE]
Activity (HepG2 [1]): 259.15 mm3
Activity (HepG2 [2]): 86%
Activity (L02 [3]): 84%
IC50 [4]: 22.3 µM
Activity (HepG2 [5]): 71%
IC50 (DNA topoisomerase II [6]): 62.7 µM
IC50 (HMEC [7]): 12.4 µM
Activity (L02 [8]): 98.3%
IC50 (MRC5 [9]): 12.2 µM
IC50 (HepG2 [10]): 4.3 µM
Activity (L02 [11]): 88%
LD50 at 480 h [12]: 46.1 mg/kg
Activity (Homo sapiens): inactive
Activity [13]: Toxic
Activity (L02 [14]): Toxic
Activity (L02 [15]): Toxic
inhibition in vivo at 30 mg/kg (HepG2 [16]): 48%
Activity (L02 [17]): Toxic
inhibition [18]: Active
Activity (L02 [19]): Toxic
IC50 (HeLa): 14.9 µM
IC50 (L02 [20]): 11.5 µM
IC50 (MCF7): 11.1 µM
Activity (L02 [21]): Toxic
Activity (HepG2 [22]): >20%
IC50 (A549): 8.2 µM
ED50 (HepG2 [23]): 40.5 mg/kg

COc1cc([C@@H]2c3cc4c(cc3[C@@H](O[C@@H]3O[C@@H]5CO[C@@H](c6cccs6)O[C@H]5[C@H](OC(=O)CSc5nc6cc(F)ccc6s5)[C@H]3NC(=O)CSc3nc5cc(F)ccc5s3)[C@H]3COC(=O)[C@H]23)OCO4)cc(OC)c1O
Activity (HepG2 [24]): inactive
Activity (DNA topoisomerase II [25]): Not Active
Activity (HepG2 [26]): 55%
inhibition [27]: 100%
Activity (L02 [28]): 40%
Activity (HepG2 [1]): 446.35 mm3
fold change (FC) (L02 [29]): 10
Activity (L02 [30]): Toxic
IC50 [4]: 120 µM
IC50 (DNA topoisomerase II [6]): 116.5 µM
IC50 (HMEC [7]): 122 µM
Activity (L02 [8]): 7.2%
Activity [31]: Non-Toxic
Activity [32]: Non-Toxic
Activity [33]: Non-Toxic
Activity [34]: Non-Toxic
IC50 (MRC5 [9]): 122 µM
IC50 (HepG2 [10]): 10.3 µM
Activity (L02 [11]): 30%
LD50 at 480 h [12]: 208 mg/kg
selectivity ratio at 20 days [35]: 6.39
Activity (Homo sapiens): Active
Activity (L02 [14]): Non-Toxic
Activity (L02 [15]): Non-Toxic
Activity (HepG2 [36]): 78%
Activity (HepG2 [37]): Active
inhibition in vivo at 30 mg/kg (HepG2 [16]): 73%
inhibition [18]: Active
fold change (FC) (MRC5 [38]): 10
inhibition [39]: Dose-dependent effect
IC50 (HeLa): 152 µM
Activity (HepG2 [40]): 30 - 55%
Activity [41]: Non-Toxic
IC50 (L02 [20]): 121 µM
IC50 (MCF7): 10.8 µM
Activity (L02 [21]): Toxic
fold change (FC) (HMEC [42]): 10
IC50 (A549): 12.6 µM
ED50 (HepG2 [23]): 32.6 mg/kg
